This passage reports IC50 results from US20130210846A1, “USE OF NOVEL PAN-CDK INHIBITORS FOR TREATING TUMORS” (BAYER INTELLECTUAL PROPERTY GMBH, priority 2010, published 2013).

Assay [1] concerns the target T1, CDK1/CycB (Homo sapiens, UniProt P06493).
T1 construct: purchased ProQinase GmbH, Freiburg, Germany; host or cells: baculovirus-infected insect cells (Sf9)
Kind of assay: CDK1/CycB kinase assay (Assay 1). It counts as biochemical. As to conditions: 0.5 μM ATP, histon IIIS, 10 min 22° C.; read-out: CDK1/CycB (Assay 1) Concentration for half-maximal inhibition of the enzyme activity, IC50. How it is done:
Recombinant CDK1 and CycB-GST fusion proteins, purified from baculovirus-infected insect cells (Sf9), were purchased from ProQinase GmbH, Freiburg, Germany. The histon HIS used as kinase substrate is commercially available from Sigma.
CDK1/CycB (200 ng/measuring point) was incubated for 10 min at 22° C. in the presence of various concentrations of test substances (0 μM, and within the range 0.01-100 μM) in assay buffer [50 mM Tris/HCl pH8.0, 10 mM MgCl2, 0.1 mM Na ortho-vanadate, 1.0 mM dithiothreitol, 0.5 μM adenosine triphosphate (ATP), 10 μg/measuring point histon IIIS, 0.2 μCi/measuring point ^33P-gamma ATP, 0.05% NP40, 1.25% dimethyl sulfoxide]. The reaction was stopped by adding EDTA solution (250 mM, pH 8.0, 15 μl/measuring point).
(§1) From each reaction mixture, 15 μl were applied to P30 filter strips (from Wallac), and unincorporated ^33P-ATP was removed by washing the filter strips three times, for 10 min each time, in 0.5% phosphoric acid. After drying the filter strips for 1 hour at 70° C., the filter strips were covered with scintillator strips (MeltiLex™ A, from Wallac) and stoved for 1 hour at 90° C. The amount of incorporated ^33P (substrate phosphorylation) was determined by scintillation measurement in a gamma-radiation measuring instrument (Wallac). The measured data were standardized to 0% inhibition (enzyme reaction without inhibitor) and 100% inhibition (all assay components except enzyme). The IC50 values were determined by means of a 4-parameter fit using the company's own software.

In assay [2] the target is T2, CDK2/CycE (Homo sapiens, UniProt P24941).
T2 construct: purchased ProQinase GmbH, Freiburg, Germany; host or cells: baculovirus-infected insect cells (Sf9)
Kind of assay: CDK2/CycE kinase assay (Assay 2). It is filed as biochemical. As to conditions: 0.5 μM ATP, histon IIIS, 10 min 22° C.; read-out: CDK2/CycE (Assay 2) Concentration for half-maximal inhibition of the enzyme activity, IC50. How it is done: Recombinant CDK2 and CycE-GST fusion proteins, purified from baculovirus-infected insect cells (Sf9), were purchased from ProQinase GmbH, Freiburg, Germany. Histon HIS, used as kinase substrate, was purchased from Sigma.
The reaction was stopped by adding EDTA solution (250 mM, pH 8.0, 15 μl/measuring point).
as §1, with “μl was” for “μl were”, “(Wallac). […]” for “(Wallac). The measured data were standardized to 0% inhibition (enzyme reaction without inhibitor) and 100% inhibition (all assay components except enzyme).”

In assay [3] the target is T3, VEGF receptor tyrosine kinase-2 (VEGF-R2) (Homo sapiens, UniProt P35968).
T3 construct: GST; made in house; host or cells: baculovirus-infected insect cells (Sf9)
T3 sequence (P35968 20-1356, species assumed): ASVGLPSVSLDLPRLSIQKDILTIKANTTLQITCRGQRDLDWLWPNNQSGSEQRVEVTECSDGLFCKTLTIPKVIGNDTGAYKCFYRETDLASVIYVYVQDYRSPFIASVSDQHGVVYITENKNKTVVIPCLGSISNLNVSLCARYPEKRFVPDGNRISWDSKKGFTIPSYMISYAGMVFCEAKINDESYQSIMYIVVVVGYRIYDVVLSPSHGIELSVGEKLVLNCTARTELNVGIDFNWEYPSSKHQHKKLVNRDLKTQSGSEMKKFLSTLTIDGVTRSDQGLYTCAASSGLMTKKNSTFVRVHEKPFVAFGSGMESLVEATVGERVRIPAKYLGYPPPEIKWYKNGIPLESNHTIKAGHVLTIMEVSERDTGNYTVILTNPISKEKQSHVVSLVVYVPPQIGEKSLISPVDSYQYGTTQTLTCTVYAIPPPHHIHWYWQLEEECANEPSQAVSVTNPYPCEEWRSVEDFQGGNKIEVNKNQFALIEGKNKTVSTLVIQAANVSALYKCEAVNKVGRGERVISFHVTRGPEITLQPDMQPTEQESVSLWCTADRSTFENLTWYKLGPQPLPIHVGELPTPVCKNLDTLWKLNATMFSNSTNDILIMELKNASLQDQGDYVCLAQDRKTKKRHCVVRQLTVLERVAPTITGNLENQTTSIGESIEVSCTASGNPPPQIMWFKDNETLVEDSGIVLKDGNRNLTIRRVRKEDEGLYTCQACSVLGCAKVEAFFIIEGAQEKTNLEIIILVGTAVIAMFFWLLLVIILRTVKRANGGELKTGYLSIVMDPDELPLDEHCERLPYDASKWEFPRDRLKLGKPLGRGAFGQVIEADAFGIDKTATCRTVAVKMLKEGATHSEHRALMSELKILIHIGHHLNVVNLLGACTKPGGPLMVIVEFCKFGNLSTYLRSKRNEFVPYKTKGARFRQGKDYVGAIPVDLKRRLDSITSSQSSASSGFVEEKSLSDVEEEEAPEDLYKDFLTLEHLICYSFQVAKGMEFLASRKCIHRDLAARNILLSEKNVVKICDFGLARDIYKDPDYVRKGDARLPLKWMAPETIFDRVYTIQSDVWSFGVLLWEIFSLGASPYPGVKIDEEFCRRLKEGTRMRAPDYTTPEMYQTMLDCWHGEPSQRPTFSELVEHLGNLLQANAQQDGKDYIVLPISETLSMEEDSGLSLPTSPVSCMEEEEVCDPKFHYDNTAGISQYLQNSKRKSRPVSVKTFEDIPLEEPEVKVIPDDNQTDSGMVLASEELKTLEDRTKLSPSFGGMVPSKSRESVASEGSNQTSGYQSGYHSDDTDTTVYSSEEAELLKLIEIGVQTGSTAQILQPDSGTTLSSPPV
Kind of assay: VEGF receptor-2 kinase assay (Assay 3). As to conditions: 8 μM ATP, poly-(Glu4Tyr), 10 min 22° C.; read-out: VEGF-R2 (Assay 3) Concentration for half-maximal inhibition of the enzyme activity, IC50. It counts as biochemical. As to the method:
Recombinant VEGF receptor tyrosine kinase-2 was purified as GST fusion protein from baculovirus-infected insect cells (Sf9). Poly-(Glu4Tyr), used as kinase substrate, was purchased from Sigma.
VEGF receptor tyrosine kinase (90 ng/measuring point) was incubated for 10 min at 22° C. in the presence of various concentrations of test substances (0 μM, and within the range 0.001-30 μM) in 30 μl assay buffer [40 mM Tris/HCl pH5.5, 10 mM MgCl2, 1 mM MnCl2, 3 μM Na ortho-vanadate, 1.0 mM dithiothreitol, 8 μM adenosine triphosphate (ATP), 0.96 μg/measuring point poly-(Glu4Tyr), 0.2 μCi/measuring point ^33P-gamma ATP, 1.4% dimethyl sulfoxide]. The reaction was stopped by adding EDTA solution (250 mM, pH 8.0, 15 μl/measuring point).
as §1, with “μl was” for “μl were”

Assay [4] relates to SW480. The assay can be described thus: Proliferation assay SW480. It counts as cell-based. As to conditions: Homo sapiens, 96 h; SW480, colon/rectum carcinoma; 4 days, crystal violet. As to the method: (§2) Cultivated human tumor cells (originally obtained from ATCC, HeLa-MaTu and HeLa-MaTu-ADR, originally obtained from Epo GmbH, Berlin, Germany) were plated at a density of 1000 to 5000 cells/measuring point, depending on the growth rate of the cell line, in a 96-well multititer plate in 200 μl of growth medium (DMEM/HAMS F12, 2 mM L-glutamine, 10% fetal calf serum). After 24 hours the cells of one plate (zero-point plate) were stained with crystal violet (see below), whereas the medium of the other plates was replaced with fresh culture medium (200 μl), to which the test substances had been added at various concentrations (0 μM, and in the range 0.01-30 μM; the final concentration of the solvent dimethyl sulfoxide was 0.5%). The cells were incubated for 4 days in the presence of the test substances. Cellular proliferation was determined by staining the cells with crystal violet: the cells were fixed by adding 20 μl/measuring point of an 11% glutaraldehyde solution for 15 min at room temperature. After washing the fixed cells with water three times, the plates were dried at room temperature. The cells were stained by adding 100 μl/measuring point of a 0.1% crystal violet solution (pH adjusted to pH3 by adding acetic acid). After washing the stained cells with water three times, the plates were dried at room temperature. The dye was dissolved by adding 100 μl/measuring point of a 10% acetic acid solution. The extinction was determined photometrically at a wavelength of 595 nm. The percentage change in cell growth was calculated by standardization of the measured values to the extinction values of the zero-point plate (=0%) and the extinction of the untreated (0 μM) cells (=100%). The measured data were standardized to 0% inhibition (cell proliferation without inhibitor) and 100% inhibition (zero-point plate). The IC50 values were determined by means of a 4-parameter fit using the company's own software.
(§3) The substances were examined in the following cell lines which, in an exemplary manner, represent the stated indications: […]

In assay [5] the test system is HCT116. The assay can be described thus: Proliferation assay HCT116. It is filed as cell-based. As to conditions: Homo sapiens, HCT-116, 96 h; HCT116, colon/rectum carcinoma; 4 days, crystal violet. As to the method:
as §2, §3

The subject of assay [6] is HeLa. The assay can be described thus: Proliferation assay HeLa. It is filed as cell-based. As to conditions: Homo sapiens, 96 h, cervix carcinoma, 4 days, crystal violet. How it is done:
as §2, §3

T1 sequence (P06493 whole entry): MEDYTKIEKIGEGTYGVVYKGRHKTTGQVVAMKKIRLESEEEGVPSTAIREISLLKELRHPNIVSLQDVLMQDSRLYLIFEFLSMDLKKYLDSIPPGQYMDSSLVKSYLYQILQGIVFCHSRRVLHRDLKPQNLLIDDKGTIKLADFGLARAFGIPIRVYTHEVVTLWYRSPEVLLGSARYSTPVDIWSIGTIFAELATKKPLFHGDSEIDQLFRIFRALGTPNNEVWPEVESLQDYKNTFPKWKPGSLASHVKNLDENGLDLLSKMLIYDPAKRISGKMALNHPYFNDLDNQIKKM
T1 sequence (P14635 whole entry partner): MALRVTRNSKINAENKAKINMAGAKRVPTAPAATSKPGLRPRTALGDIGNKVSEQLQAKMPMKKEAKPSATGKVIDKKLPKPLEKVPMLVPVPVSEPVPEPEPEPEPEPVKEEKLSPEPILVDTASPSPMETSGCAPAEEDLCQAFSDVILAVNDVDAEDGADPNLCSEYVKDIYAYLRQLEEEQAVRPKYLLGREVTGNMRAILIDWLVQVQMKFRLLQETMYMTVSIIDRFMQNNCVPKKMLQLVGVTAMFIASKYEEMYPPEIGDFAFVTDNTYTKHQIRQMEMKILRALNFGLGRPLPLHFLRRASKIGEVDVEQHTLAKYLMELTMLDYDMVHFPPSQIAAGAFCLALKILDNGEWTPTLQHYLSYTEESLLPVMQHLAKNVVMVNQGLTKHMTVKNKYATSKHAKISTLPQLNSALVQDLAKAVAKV

Take `CCS(=N)(=O)c1ccc(Nc2ncc(C(F)(F)F)c(N[C@H](C)C(C)(C)O)n2)cc1` (single isomer, unassigned) [Example 7-SI-2]: the IC50 in assay [1] worked out at 0.007 µM; in assay [2], 0.005 µM; in assay [3], 0.136 µM; in assay [4] it was 0.045 µM; in assay [5], 0.017 µM; in assay [6], 0.033 µM.

Turning to `C[C@@H](O)[C@@H](C)Nc1nc(Nc2ccc(S(C)(=N)=O)cc2)ncc1C(F)(F)F` (single isomer, unassigned) [Example 8-SI-2], the IC50 in assay [1] amounted to 0.003 µM; in assay [2], 0.004 µM; in assay [3] it was 0.081 µM; in assay [4], 0.031 µM; in assay [5] it was 0.017 µM; in assay [6], 0.025 µM.
